Data set [1] concerns influenza H3N2/Wisconsin/67/2005. Description: plaque assay of influenza H3N2 replication in MDCK cells. As to conditions: 10 μM, control drug. The class given is cell-based, influenza virus.
For data set [2], the system named is herpes simplex virus type 1 strain KOS. The experiment in a line: plaque inhibition assay of HSV1 strain KOS replication in Vero cells. Format: cell-based. As to conditions: for inhibition of plaque number: compared to media-only treated controls.
Data set [3] relates to Vero African green monkey kidney cells.
In another data set the test system is MDCK canine kidney cells. Particulars: for effect on monolayer: compared to cell control wells.

Read-outs that look alike come from different tables or passages of the source.

The results in this text go back to US20170298100A1, “ANTI-VIRAL PEPTIDES” (Cascadia Life Sciences LLC, priority 2014, published 2017).

With `CCOC(=O)C1=C[C@@H](OC(CC)CC)[C@H](NC(C)=O)[C@@H](N)C1` [Oseltamivir], the “inhibition of H3N2 plaques” value in data set [1] is “completely inhibitory”.

With `Nc1nc2c(ncn2COCCO)c(=O)[nH]1` [acyclovir, reference compound], the “plaque size relative to plaques with 56 μM CLS1N (approx. 0.7 mm)” value in data set [2] (5 μM acyclovir control) is reported as “approximately the same size”.

Take “Ac-RQYSVTDALEDVSTSPQSTEEVVQSFLISQ-NH2 [CLS1S]”: in data set [3] (188 ug/ml dilution), the “density of the monolayer” value is recorded as “did not affect the density of the monolayer”. Besides, the effect on monolayer entry in data set [3] (highest concentration, compared to control untreated cells) was “moderate thinning”.

With “Ac-GDTVGLIDEQNEASKTNGLGAAEAF-NH2 [CLS2G]”, the cytotoxicity result with MDCK canine kidney cells (74.0 μM (second concentration)) is given as “no cytotoxicity”. Besides, the effect on monolayer entry in the data set with MDCK canine kidney cells (235 μM (highest concentration)) is “moderate thinning and more intense staining of the monolayer”.

Regarding “Ac-ADVDVSAVQAKLGALELNQRDAAAETELRV-NH2 [CLS2A]”, the cytotoxicity result with MDCK canine kidney cells (59.4 μM (second concentration)) is recorded as “no cytotoxicity”. For the same compound, in the data set on MDCK canine kidney cells (188 μM (highest concentration)), the effect on monolayer entry was “moderate thinning and more intense staining of the monolayer”.

For “RQYSVTDALEDVNTSPQSTEEVVQSFLISQ (Artificial anti-viral peptides) [CLS1N]”, the plaque size entry in data set [2] (5.6 μM (dilution 4)) and in data set [2] (17.6 μM (dilution 3)) was “wild type size” in each case. Further, the “inhibition of plaque number” value in data set [2] (5.6 μM (dilution 4)) and in data set [2] (17.6 μM (dilution 3)) was “not significant inhibition of plaque number” in each case. Further, the “plaque size (diameter)” value in data set [2] (56 μM, untreated plaques approx. 1.5 mm) is reported as “approx. 0.7 mm”. For the same compound, the plaque number result in data set [2] (177 μM) is recorded as “reduced in number”. In addition, the “inhibition of virus growth in cells” value in data set [2] (plaque inhibition assay, Vero cells) is given as “effectively inhibited virus growth”. For the same compound, the monolayer appearance result in data set [3] (5.6 μM (dilution 4)) and in data set [3] (17.6 μM (dilution 3)) was “normal microscopically” in each case. In addition, in data set [3] (56 μM), the “cytotoxicity grade (density of the monolayer)” value is on record as “no cytotoxicity”. Also, the effect on monolayer entry in data set [3] (177 μM, compared to cell control wells) was “moderate thinning and moderately less intense staining of the monolayer”.
